Source: patent publication US7419780B2, “Methods and assays for screening protein targets” (The Trustees of Columbia University in the City of New York, priority 2000, dated 2008)

Tested on: S. cerevisiae strain FY250

For `C[C@@H]1C[C@H]2[C@@H]3CCC4=CC(=O)C=C[C@]4(C)[C@@]3(F)[C@@H](O)C[C@]2(C)[C@@]1(O)C(=O)CO` [DEX, Dexamethasone], which “toxicity (impaired cell growth on plate)” value is on record?
The value was “neither DEX nor GR are toxic”.
